Test [1] deals with NMDA receptor channel complex. As to the kind of experiment: inhibition of glutamate evoked contractions of the guinea pig ileum (longitudinal muscle/myenteric plexus). It counts as cell-based. To be noted: 100 μM glutamate; test compound added 5 minutes before the glutamate. From the text:
(§1) The actions of compounds of formula I as antagonists at the glycine receptor of the NMDA receptor complex can be shown by standard tests such as the [^3 H]-glycine binding assay, by functional assays in vitro such as tests for measuring glutamate evoked contractions of the guinea pig ileum, and by tests in vivo such as ischemia induced by carotid occlusion in the gerbil model.
For glutamate evoked contractions of the guinea pig ileum, the methodology is as described previously (Luzzi et. al., Br. J. Pharmacol., 95, 1271-1277 (1989). The longitudinal muscle and associated myenteric plexus are removed and placed in oxygenated modified Krebs-Henseleit solution (118 mM NaCl, 4.7 mM KCl, 2.5 mM CaCl2, 1.2 mM KH2 PO4, 25 mM NaHCO3, and 11 mM glucose). Tissues are suspended on glass rods in organ baths under a resting tension of 0.5 g. After an initial depolarization with 80 mM potassium to remove possible blockade of the NMDA receptor channel complex with magnesium, twitch responses are evoked with 100 μM glutamate. Isometric mechanical responses are recorded. Tissues are equilibrated for at least 2 hours prior to addition of compounds.
A dose response curve for the effect of the unknown on the magnitude of the glutamate-evoked contractions is generated. Glutamate-evoked contractions are generated at 20 minute intervals, with the test compound added 5 minutes before the glutamate. […]

Test [2] has as its system neuronal damage in the hippocampus. The test is described as follows: gerbil ischemic model (bilateral carotid occlusion), hippocampal neuronal damage rating. It is filed as in vivo, adult female Mongolian gerbils.
Text: as §1
When testing in vivo using the gerbil ischemic model, adult female Mongolian gerbils (50-70 g) are anesthetized with 2 to 3% halothane. The bilateral common carotid arteries at the neck are exposed and occluded with microaneurysm clips. After 10 min (unless specified), the clips are removed and the blood flow through the carotid arteries is restored and the skin is sutured. Test compounds are administered intraperitoneally both pre- and post-occlusion, for example 45 minutes before and 5 minutes after occlusion of the carotid arteries. Sham-operated animals are treated in the same manner except that the arteries are not clamped. Gross behavioral observations along with motor activity are recorded for 2 hr on the first (24 hr) day following the occlusion. After 4 days, subjects are sacrificed (decapitation), brains are removed, fixed, sectioned and stained with hematoxylin/eosin and cresyl violet.
The brain sections are rated for neuronal damage in the hippocampus using the following rating scale:
1=slight damage (up to 25%)--restricted CA1/subiculum border
2=moderate damage (up to 50%)--obvious damage, restricted to less than half of CA1 field
3=marked damage (up to 75%)--involving greater than half of CA1 field
4=damage extending beyond CA1 field
Results can be reported as the percentage of neuroprotection afforded by a particular dose and dosing regimen.
Sections (7 micron) are evaluated from each brain. Occasionally, asymmetrical damage may be noted and the rating assigned is the average score of the two sides. The average brain damage rating score for each group is recorded, and the damage scores of the drug treated group are compared to the vehicle-treated group using Wilcoxcon-Rank Sum test.
Typical values in this test for compounds according to the invention are illustrated by the following results: for the compound of Example 1, 57% neuroprotection (relative to sham-operated control) when dosed twice with 20 mg/kg body weight intraperitoneally (ip) according to the above regimen; 44% neuroprotection when dosed with 30 mg/kg body weight ip three times at 15, 30, and 45 minutes after induction of ischemia; for the compound of Example 3, 83% neuroprotection when dosed twice with 30 mg/kg body weight ip according to the above regimen; for the compound of Example 1a, 78% neuroprotection when dosed twice with 20 mg/kg body weight ip according to the above regimen.

For test [3], the target named is T1, glycine receptor of the NMDA receptor complex (Rattus norvegicus, UniProt P35439).
T1 construct: Freshly dissected cortices and hippocampi are homogenized in 0.32 M sucrose; from tissue; host or cells: synaptic membranes of cortices and hippocampi of adult male Sprague-Dawley rats
As to the kind of experiment: [3H]-glycine binding assay at the N-methyl-D-aspartate receptor, rat neuronal synaptic membranes (cortices and hippocampi). Also noted: species or system male Sprague-Dawley rats. To be noted: 20 nM [3H]-glycine, pH 7.1, 30 minutes at 4° C. As for the experimental part:
as §1
In the [^3 H]-glycine binding assay, neuronal synaptic membranes are prepared from adult (about 250 g) male Sprague-Dawley rats. Freshly dissected cortices and hippocampi are homogenized in 0.32 M sucrose (110 mg/mL). Synaptosomes are isolated by centrifuga-tion (1000×g, 10 min), the supernatant is pelleted (20,000×g, 20 min) and resuspended in double-distilled water. The suspension was centrifuged for 20 minutes at 8,000×g. The resulting supernatant and buffy coat are washed twice (48,000×g, 10 mins, resuspension in double-deionized water). The final pellet is quickly frozen (dry iceethanol bath) under double-deionized water and stored at -70° C.
On the day of the experiment, thawed synaptic membranes are homogenized with a Brinkmann Polytron (tm, Brinkmann Instruments, Westbury, N.Y.) tissue homogenizer in 50 mM tris(hydroxymethyl)aminomethane citrate, pH 7.1. The membranes are incubated with 0. 04% Sufact-AMPS X100 (tm, Pierce, Rockford, Ill.) in buffer for 20 minutes at 37° C. and washed six times by centrifugation (48,000×g, 10 min) and resuspended in buffer. The final pellet is homogenized at 200 mg wet weight/mL of the buffer for the binding assay.
For [^3 H]-glycine binding at the N-methyl-D-aspartate receptor, 20 nM [^3 H]-glycine (40-60 Ci/mmol, New England Nuclear, Boston, Mass.) is incubated with the membranes suspended in 50 mM tris (hydroxymethyl)aminomethane citrate, pH 7.1 for 30 minutes at 4° C. Glycine, 1 mM, is used to define the nonspecific binding. […] Radioactivity is estimated by liquid scintillation counting. […]

[4] abbreviates: dosed twice with 20 mg/kg ip, pre- and post-occlusion (e.g. 45 min before and 5 min after), Example 1: relative to sham-operated control.

Structures are written as SMILES.

For `O=c1[nH]c2cc(Cl)ccc2c(=O)cc1O` [Example 1, 8-Chloro-2,5-dihydro-2,5-dioxo-3-hydroxy-1H-benz[b]azepine], the half-inhibitory concentration (IC50) in test [1] was 110 nM; in test [3], 30 nM. Further, the neuroprotection is 44% in test [2] (30 mg/kg ip three times at 15, 30, and 45 minutes after induction of ischemia); 57% in test [2] (setting [4]).

As to `COc1cc(=O)c2ccc(Cl)cc2[nH]c1=O` [Example 1a, 8-Chloro-2,5-dihydro-2,5-dioxo-3-methoxy-1H-benz[b]azepine], in test [2] (setting [4]), the neuroprotection stood at 78%. The IC50 in test [3] was 1000 nM.

On to `O=c1[nH]c2cc(Br)ccc2c(=O)cc1O` [Example 3, 8-bromo-2,5-dihydro-2,5-dioxo-3-hydroxy-1H-benz[b]azepine], for which the IC50 worked out at 1000 nM in test [1] and 97 nM in test [3]. This molecule also displayed a neuroprotection in test [2] (dosed twice with 30 mg/kg ip, pre- and post-occlusion (e.g. 45 min before and 5 min after)) of 83%.
